Starred links: 1 amine or outer side, 2 acyl side, 3 side chain; linkers in the order of their positions; H or OH if unused. Residues, ends and D or L forms follow the SMILES beside them. *: point of attachment. X1 = CC(C)(C)c1cc(C(=O)*)cc(C(C)(C)C)c1O; Suc = O=C(CCC(=O)[*:2])[*:1]
Key:
[1] = system: soy phosphatidyl-choline (PC); assay: Antioxidant activity: inhibition of Fe-initiated lipid peroxidation (TBARs); assay type: biochemical
Description: Antioxidant Activity. Peptides were dissolved in trifluoroethanol (TFE) and mixed with soy phosphatidyl-choline (PC) in chloroform. After drying under a N2 stream, the mixture was resuspended in ethanol and injected into buffer (50 mM NaCl, 50 mM Tris-HCl, pH 7.0) to obtain a final concentration of 0.5 mM phospholipid. Peroxidation was initiated with 50 μM Fe^2+ plus a mixture of 50 μM Fe^3+ and 250 μM histidine. At intervals over a period of 15 min at 37° C., 1 mL samples of the reaction mixture were taken for determination of TBARs (thiobarbituric acid reactive substances). Two mL of a mixture of 2 parts of 0.67% thiobarbituric acid/0.05N NaOH and 1 part of 10% trichloroacetic acid and 0.05 mL of 2% butylated hydroxytoluene were added. Reaction proceeded for 30 min at 100° C. The tubes were then cooled, centrifuged for 15 min at 3000 rpm and transferred to acrylic cuvettes. The differences in absorbance at 532 nm and 700 nm (to correct for light scattering) were measured and the TBARs were calculated in units of malondialdehyde equivalents using a molar extinction coefficient of 1.56×10^5 M^-1 cm^-1.

[2] = system: surfactant-deficient lavaged adult rat lungs; assay: Isolated rat lavaged lung model (pressure-volume deflation curves); assay type: in vivo; details: for effect on the pressure-volume (P-V) curve of the lavaged lung: statement in words
From the text: Methods of testing the synthetic surfactant preparations for efficacy are well known in the art. For example, the synthetic surfactant preparations of the present invention can be tested in any appropriate manner such as in the adult rat lung model (Ikegami, et al., (1979) Pediatr. Res. 13, 777-780).
Pressure-volume characteristics of surfactant-depleted rat lungs are similar to those of lungs of infants with hyaline membrane disease and restoration of the pressure-volume relationship of the lung to normal is related to the amount of surfactant instilled in a dose dependent manner. (Bermel, M. S., et al., Lavaged excised rat lungs as a model of surfactant deficiency, Lung 162:99-113 (1984)).
Isolated Rat Lavaged Lung Model. The experimental procedures for animal preparation, pressure-volume curve registration and lung lavage were adapted from those described by Ikegami et al., Pediatr. Res. 11:178-182 (1977) and Pediatr. Res. 13:777-780 (1979, and Bermel et al, Lung 162:99-113 (1984). Male Sprague Dawley rats (200-250 g) were anesthetized with sodium pentobarbital and exsanguinated. The trachea was cannulated and the thoracic organs were removed en bloc. After removal of the adventitious tissue, the trachea and lungs (~2 g) were suspended in saline (0.9%), placed in a vacuum chamber, and degassed according to the procedure of Stengel et al. the degassed lungs were suspended in saline in a 37° C., jacketed reservoir and the tracheal cannula was connected both to a water manometer and a glass syringe by a T-tube. The glass syringe was placed in an infusion/withdrawal pump. Lungs were rapidly inflated with air to 30 cm H2 O pressure at the rate of 10 ml/min to minimize air trapping, and were maintained at this pressure for 10 min by intermittently adding air to the lungs. The total volume of air infused was recorded as the total lung capacity (TLC) which was generally 14-15 ml. The lungs were then deflated at a rate of 2.5 ml/min until zero pressure was attained. During deflation, pressure was read from the water manometer at 1 cm intervals and recorded. […] After degassing and equilibration, the lungs were rendered surfactant-deficient by repeated lavage with 5 ml/g lavage buffer (0.9% NaCl, 10 mM HEPES, pH 7.4). The procedures of degassing, equilibrating, and lavaging were repeated (15-20 times) until the pressure-volume curve had become distinctly sigmoidal in shape and the volume of air remaining in the lungs at 5 cm H2 O pressure was less than or equal to 3 ml. At this point, the lungs were considered surfactant-deficient. For testing, 2 ml of 0.9% NaCl, 10 mM HEPES buffer, pH 7.4, were added to the dry lung surfactants (25 mg of phospholipid; 100-125 mg/kg) and the mixture was vortexed, flushed with nitrogen and incubated for 1 h at 45° C. The mixture was then vortexed again, degassed if foamy, and 2 ml of the test mixture were introduced into and withdrawn from the lungs four times by syringe. When the test mixture was reintroduced to the lungs for the fifth time, it was allowed to remain in the lungs. This procedure was adopted to encourage even distribution of the material throughout the lung. The lungs were degassed, allowed to equilibrate at 37° C. for 5 min, and a P-V measurement was performed. […] The deflation limbs of the pressure-volume (P-V) curves in adult rat lungs were analyzed by calculating the total lung capacities (%TLC) at 5 and 10 cm H2 O pressure (PC5 and PC10).

[3] = Surface tension of an oscillating bubble in a pulsating bubble surfactometer; assay type: physicochemical; details: after 10 min of pulsing, 37° C.
Description: Surface Tension Measurements. The minimum and maximum surface tension of an oscillating bubble were measured on samples at 37° C. with a cycle rate of 20 per min in a pulsating bubble surfactometer (PBS, Electronetics Corp.), essentially as described by Enhorning, J. Appl. Physiol 43:198-203 (1977). The plastic cample chamber was rinsed with a dilute solution of dishwashing detergent, thoroughly rinsed with water and dried under a stream of N2 prior to use.

[4] = CD spectra: conformation of peptides in water and TFE; assay type: physicochemical; details: fits ±3% (SEM of fit)
Description: CD Spectra. Circular dichroic (CD) spectra of samples in 1 mm circular cuvettes were recorded at room temperature on a Jasco J-500A Spectropolarimeter with 2 nm slit width. The CD spectrum of buffer was subtracted from the CD spectrum of the sample after each scan. The scan rate is 2 nm/min and the time constant was 8 sec. Data was collected at 0.04 nm intervals and averaged over a 0.2 nm interval.

[5] = water, fit to standard spectra of Greenfield & Fasman

CC(C)(Sc1cc(C(C)(C)C)c(O)c(C(C)(C)C)c1)Sc1cc(C(C)(C)C)c(O)c(C(C)(C)C)c1 [Probucol]
time for which oxidation is totally inhibited ([1]; 0.6% (by weight), added to WMAP10 in soy PC mixtures, data not shown): at least 8 min | effect on the pressure-volume (P-V) curve of the lavaged lung [2]: does not diminish the activity | γmin (minimum surface tension) ([3]; mixture with DPPC, 20 cycles per min): slightly increased

CC(C)C[C@H](NC(=O)CCC(=O)O)C(=O)N[C@@H](CC(C)C)C(=O)N[C@@H](CCC(=O)O)C(=O)N[C@@H](CCCCN)C(=O)N[C@@H](CC(C)C)C(=O)N[C@@H](CC(C)C)C(=O)N[C@@H](CCC(=O)O)C(=O)N[C@@H](CCCCNC(=O)c1cc(C(C)(C)C)c(O)c(C(C)(C)C)c1)C(=O)N[C@@H](CC(C)C)C(=O)N[C@@H](CCCCN)C(N)=O [HBB-LysMAP10, Suc-Leu-Leu-Glu-Lys-Leu-Leu-Glu-Ne-HBB-Lys-Leu-Lys-NH2] (Suc-LLEKLLEK(X1)LK-NH2)
antioxidant activity (inhibition of lipid peroxidation) ([1]; in soy PC mixtures, 50 μM Fe2+ plus 50 μM Fe3+/250 μM histidine, 37° C., 15 min): effective antioxidants | Conformation based on CD spectra: α ([4]; TFE, first TFE column): 78 | Conformation based on CD spectra: α (second TFE column) ([4]; TFE, second TFE column): 0 | Conformation based on CD spectra: α [4, 5]: 59 | Conformation based on CD spectra: β [4, 5]: 4

CCCCCCCCCCCCCCCC(=O)OC[C@H](COP(=O)([O-])OCC[N+](C)(C)C)OC(=O)CCCCCCCCCCCCCCC [DPPC, dipalmitoylphosphatidylcholine]
PC5 (% TLC at 5 cm H2O) ([2]; no dose given, mean ± SEM, n=4): 13 ± 1 % TLC | PC10 (% TLC at 10 cm H2O) ([2]; no dose given, mean ± SEM, n=4): 31 ± 2 % TLC | restoration (based on PC5) ([2]; no dose given, relative to sufficient and deficient measurements on the same lungs, mean ± SEM): -11 ± 8% | effect on the pressure-volume (P-V) curve of the lavaged lung [2]: no significant effect | γmin (minimum surface tension) ([3]; unsonicated liposomes): 38 mN/m

Source: patent US5683982A, “Synthetic lung surfactant having antioxidant properties” (Merrell Pharmaceuticals Inc., priority 1995, dated 1997)
